Measured values as given in US10196403B2, “Compounds and compositions and uses thereof” (Sunovion Pharmaceuticals Inc., priority 2016, dated 2019).

System: mice
Assay: Neuropharmacological Assay (SmartCube)
Assay type: in vivo
Conditions: for minimal effective dose: Mus musculus, MED = dose having 50% or more total activity in SmartCube, read-out: POTENCY (minimal effective dose, MED); for AD: ADHD (SmartCube probability) / AG: analgesic (SmartCube probability) / AX: anxiolytic (SmartCube probability) / CE: cognitive enhancer (SmartCube probability) / DP: anti-depressant (SmartCube probability) / MS: mood stabilizer (SmartCube probability) / PS: anti-psychotic (SmartCube probability) / SD: sedative hypnotic (SmartCube probability) / UN: uncharacterized CNS activity (SmartCube probability): mice, i.p. 15 min before test, most efficacious dose(s) of 3 doses
Source text: Neuropharmacological Assay (SmartCube™)
Neurosci. 2011 Sep. 9; 5:103 (doi: 10.3389/fnins.2011.00103) (“Roberds”). As reported in Roberds, because psychiatric diseases generally result from disorders of cell-cell communication, circuitry, intact systems are useful in detecting improvement in disease-relevant endpoints. These endpoints are typically behavioral in nature, often requiring human observation and interpretation. To facilitate testing of multiple compounds for behavioral effects relevant to psychiatric disease, PsychoGenics, Inc. (Tarrytown, N.Y., “PGI”) developed SmartCube™, an automated system in which behaviors of compound-treated mice are captured by digital video and analyzed with computer algorithms. (D. Brunner et al., Drug Discov. Today 2002, 7:S107-S112). PGI Analytical Systems uses data from SmartCube™ to compare the behavioral signature of a test compound to a database of behavioral signatures obtained using a large set of diverse reference compounds. (The composition of the database as well as validation of the method is further described in Roberds). In this way, the neuropharmacological effects of a test compound can be predicted by similarity to major classes of compounds, such as antipsychotics, anxiolytics and antidepressants.
The SmartCube™ system produces an activity signature indicating the probability that the activity of the test compound at the administered dose matches a given class of neuropharmacological agents. (See, e.g., Roberds, FIGS. 2 and 3). The test compound is simultaneously compared against multiple classes of agents; thus, a separate probability is generated for each behavioral effect measured (e.g., anxiolytic activity, analgesic activity, etc.). In the table below, these probabilities are reported for each behavioral effect measured as follows:
where LOQ is the limit of quantification.
Provided compounds were dissolved in a mixture of Pharmasolve™ (N-methyl-2-pyrrolidone), polyethylene glycol and propylene glycol, and were injected i.p. 15 min. before the behavioral test. For each compound, injections were administered at 3 different doses. For each behavioral effect measured, results for the most efficacious dose(s) are presented. In the table below, DP: anti-depressant; AX: anxiolytic; SD: sedative hypnotic; PS: anti-psychotic; MS: mood stabilizer; AD: ADHD; CE: cognitive enhancer; AG: analgesic; UN: uncharacterized CNS activity.
The potency of many of the compounds in the table was also determined in the SmartCube™ system. Test compounds were routinely examined at dose levels of 0.3, 1, 3 10 and 30 mg per kg (mpk), although the dose range was increased or decreased if necessary to obtain a full dose response curve. A compound's minimal effective dose (MED) is a measure of the compounds potency. The MED was defined as the dose (in mpk) having 50% or more total activity in SmartCube.

NC[C@H]1OCCc2ccc3c(c21)OCO3 [Example 7, (S)-(6,9-dihydro-7H-[1,3]dioxolo[4,5-h]isochromen-9-yl)methanamine]
minimal effective dose: < 3 mg/kg
AD: ADHD (SmartCube probability): ++ (5%≤ ++ <25%)
AG: analgesic (SmartCube probability): +++ (25%≤ +++ <50%)
AX: anxiolytic (SmartCube probability): +++ (25%≤ +++ <50%)
CE: cognitive enhancer (SmartCube probability): ++ (5%≤ ++ <25%)
DP: anti-depressant (SmartCube probability): ++ (5%≤ ++ <25%)
MS: mood stabilizer (SmartCube probability): ++ (5%≤ ++ <25%)
PS: anti-psychotic (SmartCube probability): ++ (5%≤ ++ <25%)
SD: sedative hypnotic (SmartCube probability): + (LOQ≤ + <5%)
UN: uncharacterized CNS activity (SmartCube probability): ++ (5%≤ ++ <25%)

NC[C@@H]1OCCc2ccc3c(c21)OCO3 [Example 8, (R)-(6,9-dihydro-7H-[1,3]dioxolo[4,5-h]isochromen-9-yl)methanamine]
minimal effective dose: 3 to 10 mg/kg
AD: ADHD (SmartCube probability): + (LOQ≤ + <5%)
AG: analgesic (SmartCube probability): ++ (5%≤ ++ <25%)
AX: anxiolytic (SmartCube probability): ++ (5%≤ ++ <25%)
CE: cognitive enhancer (SmartCube probability): ++ (5%≤ ++ <25%)
DP: anti-depressant (SmartCube probability): ++ (5%≤ ++ <25%)
MS: mood stabilizer (SmartCube probability): + (LOQ≤ + <5%)
PS: anti-psychotic (SmartCube probability): ++ (5%≤ ++ <25%)
SD: sedative hypnotic (SmartCube probability): + (LOQ≤ + <5%)
UN: uncharacterized CNS activity (SmartCube probability): +++ (25%≤ +++ <50%)

CNC[C@H]1OCCc2ccc3c(c21)OCCO3 [Example 9, (S)-N-methyl-1-(2,3,7,10-tetrahydro-8H-[1,4]dioxino[2,3-h]isochromen-10-yl)methanamine]
minimal effective dose: 3 to 10 mg/kg
AD: ADHD (SmartCube probability): + (LOQ≤ + <5%)
AG: analgesic (SmartCube probability): ++ (5%≤ ++ <25%)
AX: anxiolytic (SmartCube probability): ++ (5%≤ ++ <25%)
CE: cognitive enhancer (SmartCube probability): + (LOQ≤ + <5%)
DP: anti-depressant (SmartCube probability): +++ (25%≤ +++ <50%)
MS: mood stabilizer (SmartCube probability): ++ (5%≤ ++ <25%)
PS: anti-psychotic (SmartCube probability): ++ (5%≤ ++ <25%)
SD: sedative hypnotic (SmartCube probability): ++ (5%≤ ++ <25%)
UN: uncharacterized CNS activity (SmartCube probability): +++ (25%≤ +++ <50%)

CNC[C@@H]1OCCc2ccc3c(c21)OCCO3 [Example 10, (R)-N-methyl-1-(2,3,7,10-tetrahydro-8H-[1,4]dioxino[2,3-h]isochromen-10-yl)methanamine]
minimal effective dose: 10 to 30 mg/kg
AD: ADHD (SmartCube probability): + (LOQ≤ + <5%)
AG: analgesic (SmartCube probability): + (LOQ≤ + <5%)
AX: anxiolytic (SmartCube probability): ++ (5%≤ ++ <25%)
CE: cognitive enhancer (SmartCube probability): ++ (5%≤ ++ <25%)
DP: anti-depressant (SmartCube probability): ++ (5%≤ ++ <25%)
MS: mood stabilizer (SmartCube probability): + (LOQ≤ + <5%)
PS: anti-psychotic (SmartCube probability): ++ (5%≤ ++ <25%)
SD: sedative hypnotic (SmartCube probability): + (LOQ≤ + <5%)
UN: uncharacterized CNS activity (SmartCube probability): +++ (25%≤ +++ <50%)

NC[C@H]1OCCc2c1ccc1c2OCO1 [Example 11, (S)-(8,9-dihydro-6H-[1,3]dioxolo[4,5-f]isochromen-6-yl)methanamine]
minimal effective dose: 3 to 10 mg/kg
AD: ADHD (SmartCube probability): ++ (5%≤ ++ <25%)
AG: analgesic (SmartCube probability): + (LOQ≤ + <5%)
AX: anxiolytic (SmartCube probability): + (LOQ≤ + <5%)
CE: cognitive enhancer (SmartCube probability): + (LOQ≤ + <5%)
DP: anti-depressant (SmartCube probability): ++++ (50%≤ ++++)
MS: mood stabilizer (SmartCube probability): + (LOQ≤ + <5%)
PS: anti-psychotic (SmartCube probability): + (LOQ≤ + <5%)
SD: sedative hypnotic (SmartCube probability): + (LOQ≤ + <5%)
UN: uncharacterized CNS activity (SmartCube probability): + (LOQ≤ + <5%)

NC[C@@H]1OCCc2c1ccc1c2OCO1 [Example 12, (R)-(8,9-dihydro-6H-[1,3]dioxolo[4,5-f]isochromen-6-yl)methanamine]
minimal effective dose: 3 to 10 mg/kg
AD: ADHD (SmartCube probability): + (LOQ≤ + <5%)
AG: analgesic (SmartCube probability): ++ (5%≤ ++ <25%)
AX: anxiolytic (SmartCube probability): + (LOQ≤ + <5%)
CE: cognitive enhancer (SmartCube probability): + (LOQ≤ + <5%)
DP: anti-depressant (SmartCube probability): ++++ (50%≤ ++++)
MS: mood stabilizer (SmartCube probability): + (LOQ≤ + <5%)
PS: anti-psychotic (SmartCube probability): ++ (5%≤ ++ <25%)
SD: sedative hypnotic (SmartCube probability): ++ (5%≤ ++ <25%)
UN: uncharacterized CNS activity (SmartCube probability): ++ (5%≤ ++ <25%)
